Key:
[1] = Solubility was determined; assay type: physicochemical
[2] = Percent of the mice tested that exhibited toxicity after a dose of 150 mg/kg; assay type: organism-based; parameters: dose 150 mg/kg; details: mouse, in vivo

Compound | solubility [1] [µg/mL] | Activity [2] [%]
COc1ccc(/C=C\c2cc(OC)c(OC)c(OC)c2)cc1O.N | ~2800 | 
COc1ccc(/C=C\c2cc(OC)c(OC)c(OC)c2)cc1[O-].[K+] |  | 60
